Test results published in patent US8748415B2 (priority 2011, dated 2014).

The compounds below were run on recombinant NL4-3 virus (Renilla luciferase in nef, Gag P373S) (assay: HIV cell culture assay (luciferase activity in MT-2 cells infected with NLRluc recombinant virus)). Details: NL43, MT-2 cells infected 4-5 days with NLRluc recombinant virus, class symbol.
Format: cell-based
Method in brief: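 Activity was read as luciferase output (Dual Luciferase reagents premixed with lysis solution) after 4–5 days of infection in serially diluted inhibitor. Host cells were MT-2 in 10% FBS RPMI. The reporter virus came from transfected 293T cells and was titered on MT-2.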
`C=C(C)[C@@H]1CC[C@]2(CNCCc3ccc(S(N)(=O)=O)cc3)CC[C@]3(C)[C@H](CC[C@@H]4[C@@]5(C)CC=C(c6ccc(C(=O)O)cc6)C(C)(C)[C@@H]5CC[C@]43C)[C@@H]12` [Example 36, 4-((1R,3aS,5aR,5bR,7aR,11aS,11bR,13aR,13bR)-5a,5b,8,8,11a-pentamethyl-1-(prop-1-en-2-yl)-3a-((4-sulfamylphenethylamino)methyl)-2,3,3a,4,5,5a,5b,6,7,7a,8,11,11a,11b,12,13,13a,13b-octadecahydro-1H-cyclopenta[a]chrysen-9-yl)benzoic acid] gave an EC50 of under 100 nM. In the case of `C=C(C)[C@@H]1CC[C@]2(CNCCCN3CCNC(=O)C3)CC[C@]3(C)[C@H](CC[C@@H]4[C@@]5(C)CC=C(c6ccc(C(=O)O)cc6)C(C)(C)[C@@H]5CC[C@]43C)[C@@H]12` [Example 23, 4-((1R,3aS,5aR,5bR,7aR,11aS,11bR,13aR,13bR)-5a,5b,8,8,11a-pentamethyl-3a-((3-(3-oxopiperazin-1-yl)propylamino)methyl)-1-(prop-1-en-2-yl)-2,3,3a,4,5,5a,5b,6,7,7a,8,11,11a,11b,12,13,13a,13b-octadecahydro-1H-cyclopenta[a]chrysen-9-yl)benzoic acid], the EC50 is reported as under 100 nM. `C=C(C)[C@@H]1CC[C@]2(CNC(=O)[C@@H](N)Cc3c[nH]cn3)CC[C@]3(C)[C@H](CC[C@@H]4[C@@]5(C)CC=C(c6ccc(C(=O)O)cc6)C(C)(C)[C@@H]5CC[C@]43C)[C@@H]12` [Example 140, 4-((1R,3aS,5aR,5bR,7aR,11aS,11bR,13aR,13bR)-3a-(((S)-2-amino-3-(1H-imidazol-4-yl)propanamido)methyl)-5a,5b,8,8,11a-pentamethyl-1-(prop-1-en-2-yl)-2,3,3a,4,5,5a,5b,6,7,7a,8,11,11a,11b,12,13,13a,13b-octadecahydro-1H-cyclopenta[a]chrysen-9-yl)benzoic acid] was tested, and the EC50 was under 100 nM. In the case of `C=C(C)[C@@H]1CC[C@]2(CNCCN3CCCC3=O)CC[C@]3(C)[C@H](CC[C@@H]4[C@@]5(C)CC=C(c6ccc(C(=O)O)c(F)c6)C(C)(C)[C@@H]5CC[C@]43C)[C@@H]12` [Example 91, 2-fluoro-4-((1R,3aS,5aR,5bR,7aR,11aS,11bR,13aR,13bR)-5a,5b,8,8,11a-pentamethyl-3a-((2-(2-oxopyrrolidin-1-yl)ethylamino)methyl)-1-(prop-1-en-2-yl)-2,3,3a,4,5,5a,5b,6,7,7a,8,11,11a,11b,12,13,13a,13b-octadecahydro-1H-cyclopenta[a]chrysen-9-yl)benzoic acid], the EC50 is reported as under 100 nM. `C=C(C)[C@@H]1CC[C@]2(CNCC(=O)OC)CC[C@]3(C)[C@H](CC[C@@H]4[C@@]5(C)CC=C(c6ccc(C(=O)O)cc6)C(C)(C)[C@@H]5CC[C@]43C)[C@@H]12` [Example 30, 4-((1R,3aS,5aR,5bR,7aR,11aS,11bR,13aR,13bR)-3a-((2-methoxy-2-oxoethylamino)methyl)-5a,5b,8,8,11a-pentamethyl-1-(prop-1-en-2-yl)-2,3,3a,4,5,5a,5b,6,7,7a,8,11,11a,11b,12,13,13a,13b-octadecahydro-1H-cyclopenta[a]chrysen-9-yl)benzoic acid] showed an EC50 of under 100 nM. For `C=C(C)[C@@H]1CC[C@]2(CNCCN3CCC(F)(F)CC3)CC[C@]3(C)[C@H](CC[C@@H]4[C@@]5(C)CC=C(c6ccc(C(=O)O)cc6)C(C)(C)[C@@H]5CC[C@]43C)[C@@H]12` [Example 48, 4-((1R,3aS,5aR,5bR,7aR,11aS,11bR,13aR,13bR)-3a-((2-(4,4-difluoropiperidin-1-yl)ethylamino)methyl)-5a,5b,8,8,11a-pentamethyl-1-(prop-1-en-2-yl)-2,3,3a,4,5,5a,5b,6,7,7a,8,11,11a,11b,12,13,13a,13b-octadecahydro-1H-cyclopenta[a]chrysen-9-yl)benzoic acid], the EC50 was under 100 nM. Compound `C=C(C)[C@@H]1CC[C@]2(CNC(=O)NCC(=O)OC)CC[C@]3(C)[C@H](CC[C@@H]4[C@@]5(C)CC=C(c6ccc(C(=O)O)cc6)C(C)(C)[C@@H]5CC[C@]43C)[C@@H]12` [Example 158, 4-((1R,3aS,5aR,5bR,7aR,11aS,11bR,13aR,13bR)-3a-((3-(2-methoxy-2-oxoethyl)ureido)methyl)-5a,5b,8,8,11a-pentamethyl-1-(prop-1-en-2-yl)-2,3,3a,4,5,5a,5b,6,7,7a,8,11,11a,11b,12,13,13a,13b-octadecahydro-1H-cyclopenta[a]chrysen-9-yl)benzoic acid] has an EC50 of under 100 nM. `C=C(C)[C@@H]1CC[C@]2(CNCCn3ccnc3)CC[C@]3(C)[C@H](CC[C@@H]4[C@@]5(C)CC=C(c6ccc(C(=O)O)cc6)C(C)(C)[C@@H]5CC[C@]43C)[C@@H]12` [Example 20, 4-((1R,3aS,5aR,5bR,7aR,11aS,11bR,13aR,13bR)-3a-((2-(1H-imidazol-1-yl)ethylamino)methyl)-5a,5b,8,8,11a-pentamethyl-1-(prop-1-en-2-yl)-2,3,3a,4,5,5a,5b,6,7,7a,8,11,11a,11b,12,13,13a,13b-octadecahydro-1H-cyclopenta[a]chrysen-9-yl)benzoic acid] showed an EC50 of under 100 nM. In the case of `C=C(C)[C@@H]1CC[C@]2(CN(CCN(C)C)C(=O)CC(=O)O)CC[C@]3(C)[C@H](CC[C@@H]4[C@@]5(C)CC=C(c6ccc(C(=O)O)cc6)C(C)(C)[C@@H]5CC[C@]43C)[C@@H]12` [Example 12, 4-((1R,3aS,5aR,5bR,7aR,11aS,11bR,13aR,13bR)-3a-((2-carboxy-N-(2-(dimethylamino)ethyl)acetamido)methyl)-5a,5b,8,8,11a-pentamethyl-1-(prop-1-en-2-yl)-2,3,3a,4,5,5a,5b,6,7,7a,8,11,11a,11b,12,13,13a,13b-octadecahydro-1H-cyclopenta[a]chrysen-9-yl)benzoic acid], the EC50 is reported as under 100 nM. `C=C(C)[C@@H]1CC[C@]2(CN(CCCN3CCS(=O)(=O)CC3)C3CC3)CC[C@]3(C)[C@H](CC[C@@H]4[C@@]5(C)CC=C(c6ccc(C(=O)O)cc6)C(C)(C)[C@@H]5CC[C@]43C)[C@@H]12` [Example 84, 4-((1R,3aS,5aR,5bR,7aR,11aS,11bR,13aR,13bR)-3a-((cyclopropyl(3-(1,1-dioxido-4-thiomorpholinyl)propyl)amino)methyl)-1-isopropenyl-5a,5b,8,8,11a-pentamethyl-2,3,3a,4,5,5a,5b,6,7,7a,8,11,11a,11b,12,13,13a,13b-octadecahydro-1H-cyclopenta[a]chrysen-9-yl)benzoic acid] gave an EC50 of under 100 nM. Work on `C=C(C)[C@@H]1CC[C@]2(CN(CCCN3CCS(=O)(=O)CC3)C(=O)CCC(=O)NS(=O)(=O)C3CC3)CC[C@]3(C)[C@H](CC[C@@H]4[C@@]5(C)CC=C(c6ccc(C(=O)O)cc6)C(C)(C)[C@@H]5CC[C@]43C)[C@@H]12` [Example 173, 4-((1R,3aS,5aR,5bR,7aR,11aS,11bR,13aR,13bR)-3a-(((4-((cyclopropylsulfonyl)amino)-4-oxobutanoyl)(3-(1,1-dioxido-4-thiomorpholinyl)propyl)amino)methyl)-1-isopropenyl-5a,5b,8,8,11a-pentamethyl-2,3,3a,4,5,5a,5b,6,7,7a,8,11,11a,11b,12,13,13a,13b-octadecahydro-1H-cyclopenta[a]chrysen-9-yl)benzoic acid] yielded an EC50 of under 100 nM. `C=C(C)[C@@H]1CC[C@]2(CNCCN3CCS(=O)(=O)CC3)CC[C@]3(C)[C@H](CC[C@@H]4[C@@]5(C)CC=C(c6ccc(C(=O)O)c(F)c6)C(C)(C)[C@@H]5CC[C@]43C)[C@@H]12` [Example 95, 4-((1R,3aS,5aR,5bR,7aR,11aS,11bR,13aR,13bR)-3a-(((2-(1,1-dioxido-4-thiomorpholinyl)ethyl)amino)methyl)-1-isopropenyl-5a,5b,8,8,11a-pentamethyl-2,3,3a,4,5,5a,5b,6,7,7a,8,11,11a,11b,12,13,13a,13b-octadecahydro-1H-cyclopenta[a]chrysen-9-yl)-2-fluorobenzoic acid] was tested, and the EC50 was under 100 nM. `C=C(C)[C@@H]1CC[C@]2(CNC(=O)[C@H]3CCCN3C)CC[C@]3(C)[C@H](CC[C@@H]4[C@@]5(C)CC=C(c6ccc(C(=O)O)cc6)C(C)(C)[C@@H]5CC[C@]43C)[C@@H]12` [Example 151, 4-((1R,3aS,5aR,5bR,7aR,11aS,11bR,13aR,13bR)-5a,5b,8,8,11a-pentamethyl-3a-(((R)-1-methylpyrrolidine-2-carboxamido)methyl)-1-(prop-1-en-2-yl)-2,3,3a,4,5,5a,5b,6,7,7a,8,11,11a,11b,12,13,13a,13b-octadecahydro-1H-cyclopenta[a]chrysen-9-yl)benzoic acid] gave an EC50 of under 100 nM.

Same assay, conditions: NL43, MT-2 cells infected 4-5 days with NLRluc recombinant virus, numeric value
Compound `C=C(C)[C@@H]1CC[C@]2(CNC(=O)NCC(=O)O)CC[C@]3(C)[C@H](CC[C@@H]4[C@@]5(C)CC=C(c6ccc(C(=O)O)cc6)C(C)(C)[C@@H]5CC[C@]43C)[C@@H]12` [Example 157, 4-((1R,3aS,5aR,5bR,7aR,11aS,11bR,13aR,13bR)-3a-((3-(carboxymethyl)ureido)methyl)-5a,5b,8,8,11a-pentamethyl-1-(prop-1-en-2-yl)-2,3,3a,4,5,5a,5b,6,7,7a,8,11,11a,11b,12,13,13a,13b-octadecahydro-1H-cyclopenta[a]chrysen-9-yl)benzoic acid] has an EC50 of 40 nM. For `C=C(C)[C@@H]1CC[C@]2(CNCCN3CCC(CO)CC3)CC[C@]3(C)[C@H](CC[C@@H]4[C@@]5(C)CC=C(c6ccc(C(=O)O)cc6)C(C)(C)[C@@H]5CC[C@]43C)[C@@H]12` [Example 181, 4-((1R,3aS,5aR,5bR,7aR,11aS,11bR,13aR,13bR)-3a-((2-(4-(hydroxymethyl)piperidin-1-yl)ethylamino)methyl)-5a,5b,8,8,11a-pentamethyl-1-(prop-1-en-2-yl)-2,3,3a,4,5,5a,5b,6,7,7a,8,11,11a,11b,12,13,13a,13b-octadecahydro-1H-cyclopenta[a]chrysen-9-yl)benzoic acid], the EC50 was 1 nM.
